The source of these data is patent EP4349333A1, “USE OF AMINOPYRIDINE, IN PARTICULAR AMIRAMPRIDINE, IN THE TREATMENT OF VIRALLY ASSOCIATED FATIGUE” (Böhmeke, Thomas, priority 2022, dated 2024).

Each structure is given as a SMILES string.

The subject of data set [1] is Fatigue-Symptomatik nach Covid-Infektion. Put plainly: Off-label case reports (Fall 1-3) in fatigue after Covid infection. Format: in vivo, Patienten. From the text:
(§1) In den nachfolgend genannten Anwendungsbeispielen wurde 3,4-Diaminopyridin Amifamprindin (Formulierung als Fertigarzneimittel) verabreicht. Im Rahmen der doppelt-blind Studie wurden gleich aussende Kapseln mit Amifampridin oder Placebo apothekenseitig verblindet zubereitet, wobei nur apothekenseitig bekannt war welche Kapseln Wirkstoff oder Placebo enthielten.
Ruhebedürfnis bis zu 20 Stunden pro Tag (brain fog) sowie ausgeprägter Konzentrationsschwäche.
Im Fall 2 wird eine Patientin beschrieben, die ebenfalls unter einer gravierenden Fatigue-Symptomatik nach Covid-Infektion 5/22 litt, eine zuzuordnende neurologische oder internistische Grunderkrankung bestand nicht. […] Die nachfolgenden Labor- und EKG-Kontrollen zur Erfassung substanzassoziierter Komplikationen waren unauffällig.
Im Fall 3 wird ein Patient beschrieben, der nach zweimaliger Covid-Infektion unter Fatigue-Symptomatik mit einem Schlafbedürfnis bis zu 2 x 9 Stunden pro Tag litt.

Data set [2] concerns Fatigue-Symptomatik bei Post-Covid-Syndrom. Put plainly: Further study / case series Pat. 1-5: Bell-Score and sleep need in post-Covid syndrome. Format: in vivo, Patienten. From the text:
(§2) Die Bell-score (oder skala) ist ein Massstab der Behinderung bei ME & CFS. Auch für Long Covid-Patient:innen ist sie geeignet. Die Bell-Skala ist individuell, da jeder Patientinnen eine unterschiedliche Belastungsintoleranz aufweist und das Erleiden von schweren Symptomen in Ruhe verhältnismässig unterschiedlich sein kann.
Es wurde eine weitere Studie an einer Patientengruppe durchgeführt.
Die Prävalenz eines Post-Covid-Syndroms (PCS) liegt bei 10-15 % nach SARS-COV-2-Infektion, neben spezifischen Organerkrankungen treten vielfältige funktionelle Beschwerden auf, vorrangig eine Fatigue-Symptomatik. Diese ist gekennzeichnet durch persistierende Müdigkeit, Schwäche, kognitive Defizite sowie vermehrtem Schlafbedürfnis. In dieser Studie bzw. Fallserie wird der Effekt von Amifampridin bei Patienten mit PCS beschrieben, die unter unphysiologisch gesteigertem Schlafbedürfnis sowie eingeschränkter Kognition litten. Zur Evaluation wurde der Bell-Score verwendet, der auf die Einschränkung der Vigilanz, körperlichen Belastbarkeit und Berufstätigkeit fokussiert.

The test system of data set [3] is Fatigue-Symptomatik nach SARS-COV-2-Infektion. Briefly: Patients 2.1 to 2.5: Bell-Score and sleep need with Amifampridin (Fig. 1 and 2). Format: in vivo, Patienten.
Description: as §2
Die nachfolgenden Dosierungen der Patienten 2.1 bis 2.5 und die veränderten Bell-Sore Werte sowie das Schlafbedürfnis in Stunden sind in den Figuren 1 und 2 dargestellt (Fig. 1 Bells-Sore mit und ohne Amifampridin, Patienten 2.1 bis 2.5, Fig. 2: kumulierte Schlafzeit in 24 h).

Data set [4] shares this test system. Put plainly: Double-blind withdrawal trial, verum and placebo for 3 days each. Format: in vivo, Patienten. To be noted: Pat. 2.1; on Amifampridin at start of verum phase (4 x 5 mg per day, days 1-3). As for the experimental part: as §1
Bei Pat. 2.1 und 2.2 waren zur Rekonvaleszenz eine Dauermedikation mit jeweils 20 mg Amifampridin pro Tag erforderlich und boten damit Voraussetzungen für einen doppelt-blinden Auslassversuch über jeweils 3 Tage.
Pat. 2.1 mit Verum an Tagen 1-3, nachfolgend Placebo an den Tagen 4-6: Pat. (Pat. 2.1) mit Bell-Score 90 begann bereits mit Amifampridin, wie vorstehend beschrieben, und setzte diese mit Blister mit 6 Tagesdosen je Tag ein Fach mit Kapseln für 3 Tage mit je 4 mal 5 mg Amifampridin fort. Die Dosierung betrugt jeweils für 3 Tage Placebo mit je 4mal Placebo-Kapseln für Patient 1 und 2 (Verum und Placebo).

The test system of data set [5] is Lambert-Eaton-Myasthenie-Syndrom (LEMS). To be noted: cited from earlier work.
Data set [6] deals with Fatigue-Symptomatik bei MS-Patienten. To be noted: described in the literature; cited from earlier work.
Where [7] appears, read: Pat. 5 (LEMS), 3 or 4 x 5 mg as daily dose.
[8] abbreviates: Pat. 2.5 (LEMS), initial 3 x 5 mg.

With `Nc1ccncc1N` [Amifampridin, Pyridin-3,4-diamin], the “muskuläre Defizite” value in data set [1] (Fall 1) is on record as “umgehende Besserung”. Also, the Fatigue-Symptomatik result in data set [1] (Fall 1, since Covid infection, sleep/rest need up to 20 Stunden pro Tag before) is on record as “schlagartige Besserung”; in data set [1] (Fall 2, 5 mg) it was “komplette Besserung”; in data set [2] (patient group of the further study, Post-Covid-Syndrom), “reduzierte Fatigue-Symptomatik”. Also, the “Labor- und EKG-Kontrollen zur Erfassung substanzassoziierter Komplikationen” value in data set [1] (Fall 2) is listed as “unauffällig”. In addition, the Konzentrationsfähigkeit entry in data set [1] (Fall 2, 5 mg) is listed as “vollständiger Restitution”; in data set [1] (Fall 3, 5 mg), “schlagartigen Besserung”. In addition, in data set [1] (Fall 2, 5 mg), the “zuzuordnende Nebenwirkung” value is recorded as “leichte periorale Parästhesien”. For the same compound, the Fatigue entry is reported as “sistiert die vorbestehende Fatigue vollständig” in data set [1] (Fall 2, Tagesdosis 3 x 5 mg); “sistierte die Fatigue” in data set [2] (setting [7]); “sistierte die Fatigue” in data set [3] (setting [8]). Moreover, in data set [1] (Fall 3, 5 mg), the “Nebenwirkung (periorale Parästhesien)” value is “transiente periorale Parästhesien mit sehr geringer Intensität”. The “Schlaf- und Ruhebedürfnis” value in data set [1] (Fall 3, 5 mg) was “physiologischem”. The Schlafbedürfnis is given as 7 Stunden / 24h in data set [2] (Pat. 1, after 3 intakes of 5 mg over 24 h, before 12); 7,5 Stunden /24 h in data set [2] (Pat. 2, after 3 doses of 5 mg, before 12); 7-9 Stunden in data set [2] (Pat. 3, after one intake of 5 mg, before 11 to 12); 8-9 Stunden / 24h in data set [2] (Pat. 5 (LEMS), 3 or 4 x 5 mg as daily dose, before 16 to 18); 7 Stunden / 24h in data set [3] (Pat. 2.1, after single intake of 5 mg, before 12); 7-9 Stunden in data set [3] (Pat. 2.2, after 5 mg, before 11-12). In addition, the Schlafbedürfnis in data set [3] (Pat. 2.3, after 5 mg, before 12) is recorded as 7,5 Stunden /24 h; in data set [3] (Pat. 2.5 (LEMS), initial 3 x 5 mg, before 16-18), 8-9 Stunden / 24h. Further, the Bell-Score came out at 100 in data set [2] (Pat. 1, after 3 intakes of 5 mg over 24 h, before 20 to 40); 100 in data set [2] (Pat. 2, after 3 doses of 5 mg, before 40); 100 in data set [2] (Pat. 3, after one intake of 5 mg, before 40); 50 in data set [2] (Pat. 4, 3 x 5 mg over 24 h, before 20, Post-Covid-Myokarditis); 100 in data set [3] (Pat. 2.1, after single intake of 5 mg, before 20 to 40); 80 in data set [3] (Pat. 2.2, after 5 mg, before 40). The Bell-Score in data set [3] (Pat. 2.3, after 5 mg, before 40) was 100; in data set [3] (Pat. 2.5 (LEMS), initial 3 x 5 mg, before 10), 80; in data set [3] (Patientin 2.4, after 5 mg, before 20, Post-Covid-Myokarditis), 50; in data set [4] it was 90. Besides, the Vigilanz entry in data set [2] (Pat. 2, after 3 doses of 5 mg) is on record as “uneingeschränkte Vigilanz”; in data set [3] (Pat. 2.3, after 5 mg), “uneingeschränkte Vigilanz”. For the same compound, the “duration of the effect” value is roughly 36 Stunden in data set [2] (Pat. 3, one intake of 5 mg) and roughly 36 Stunden in data set [3] (Pat. 2.2, 5 mg). Further, the “muskuläre Belastbarkeit” value in data set [2] (setting [7]) and in data set [3] (setting [8]) was “gebesserte muskuläre Belastbarkeit” each time. The “Bell-Score in Bezug auf die muskulären Defizite” value in data set [3] (Pat. 2.5 (LEMS), 3 x 20 mg plus 5 mg if needed (60 to 70 mg per day)) is “ca. 20”. Also, the “koindizierte Fatigue” value in data set [5] (LEMS-Patienten, stated as known) is listed as “Besserung”.
`Nc1ccncc1N` [Amifampridine Phosphate (Firdapse), Amifampridine Phosphate]: the “koinzidente Fatigue” value in data set [5] (LEMS, 20 bis 80 mg als Tagesdosen, J Clin Neuromuscul Dis. 2019) is recorded as “Besserung einer koinzidenten Fatigue”.
With `Nc1ccncc1` [Fampridin], the “begleitende Fatigue-Symptomatik” value in data set [6] is “Besserung”.
